From US9603364B2 (Dow AgroSciences LLC, priority 2013, dated 2017)

What was measured:
Assay in all cases: General post-emergent herbicidal activity, foliar application
Assay type in all cases: in vivo
[1] = tested on: Oryza sativa L. (rice); details: Oryza sativa, 336 h, scored after 14 days, read-out: % Visual Growth Reduction ORYSA
Description: (§1) A weighed amount, determined by the highest rate to be tested, of each test compound was placed in a 25 mL glass vial and was dissolved in 4 mL of a 97:3 v/v (volume/volume) mixture of acetone and dimethyl sulfoxide to obtain concentrated stock solutions which will be referred to as General Purpose Solvent. […] The concentrated stock solutions obtained were diluted with 20 mL of an aqueous mixture containing water, General Purpose Solvent, isopropyl alcohol, Atplus 411F crop oil concentrate, and Triton X-155 surfactant in a 46:42:12:1.0:0.02 v/v ratio to obtain spray solutions containing the highest application rates. Additional application rates were obtained by serial dilution of 12 mL of the high rate solution into a solution containing 2 mL of 97:3 v/v (volume/volume) mixture of acetone and dimethyl sulfoxide and 10 mL of an aqueous mixture containing water, General Purpose Solvent, isopropyl alcohol, Atplus 411F crop oil concentrate, and Triton X-155 surfactant in a 46:42:12:1.0:0.02 v/v ratio to obtain 1/2×, 1/4×, 1/8× and 1/16× rates of the high rate. […] Control plants were sprayed in the same manner with the solvent blank.
(§2) The treated plants and control plants were placed in a greenhouse as described above and watered by sub-irrigation to prevent wash-off of the test compounds. After 14 days, the condition of the test plants as compared with that of the untreated plants was determined visually and scored on a scale of 0 to 100 percent where 0 corresponds to no injury and 100 corresponds to complete kill.

[2] = tested on: Zea mays L. (corn); details: 336 h, scored after 14 days, read-out: % Visual Growth Reduction ZEAMX
Description: as §1, §2

[3] = tested on: Echinochloa crus-galli (L.) Beauv. (barnyardgrass); details: for GR80 Value ECHCG: calculated by probit analysis, dose for 80% visual injury, may be extrapolated
Description: as §1, §2
(§3) By applying the well-accepted probit analysis as described by J. Berkson in […], 48, 565 (1953) and by D. Finney in “Probit Analysis” Cambridge University Press (1952), the dose response data gathered as expressed above can be used to calculate GR20, GR50 and GR80 values, which are defined as growth reduction factors that correspond to the effective dose of herbicide required to kill or control 20 percent, 50 percent or 80 percent, respectively, of a target plant. Data not expressed in Table A may have been used to calculate some of the GR80 values in Table B. In some cases, the GR80 values may be extrapolations calculated based on the slope of the dose response curve for individual compounds listed in Table B.

[4] = tested on: Amaranthus retroflexus L. (pigweed, redroot); details: for GR80 Value AMARE: calculated by probit analysis, dose for 80% visual injury, may be extrapolated
Description: as §1, §2, §3

[5] = tested on: Helianthus annuus L. (sunflower, common); details: for GR80 Value HELAN: calculated by probit analysis, dose for 80% visual injury, may be extrapolated
Description: as §1, §2, §3

[6] = tested on: Viola tricolor L. (pansy); details: for GR80 Value VIOTR: calculated by probit analysis, dose for 80% visual injury, may be extrapolated
Description: as §1, §2, §3

[7] = tested on: Euphorbia heterophylla L. (poinsettia, wild); details: for GR80 Value EPHHL: calculated by probit analysis, dose for 80% visual injury, may be extrapolated
Description: as §1, §2, §3

[8] = tested on: Chenopodium album L. (lambsquarters, common); details: for GR80 Value CHEAL: calculated by probit analysis, dose for 80% visual injury, may be extrapolated
Description: as §1, §2, §3

Question: With `COC(=O)c1nc(C(C)F)c(Cl)c(N)c1Cl` (stereo not drawn) [Compound F10, Methyl 4-amino-3,5-dichloro-6-(1-fluoroethyl)picolinate] as the compound, how does the plant injury at 35 g/ha ([1]; 35 g ai/ha) read?
Answer: 0%

Question: And the plant injury at 70 g/ha ([1]; 70 g ai/ha)?
Answer: 0%

Question: And the plant injury at 140 g/ha ([1]; 140 g ai/ha)?
Answer: 0%

Question: And the plant injury at 35 g/ha ([2]; 35 g ai/ha)?
Answer: 0%

Question: And the plant injury at 70 g/ha ([2]; 70 g ai/ha)?
Answer: 0%

Question: What about the plant injury at 140 g/ha ([2]; 140 g ai/ha) of the same compound?
Answer: 0%

Question: What about the pest or weed control at 35 g/ha ([3]; Echinochloa crus-galli, 336 h, 35 g ai/ha, foliar post-emergent, scored after 14 days, read-out: % Visual Growth Reduction ECHCG) of the same compound?
Answer: 0%

Question: What about the pest or weed control at 70 g/ha ([3]; Echinochloa crus-galli, 336 h, 70 g ai/ha, foliar post-emergent, scored after 14 days, read-out: % Visual Growth Reduction ECHCG) of the same compound?
Answer: 0%

Question: And the pest or weed control at 140 g/ha ([3]; Echinochloa crus-galli, 336 h, 140 g ai/ha, foliar post-emergent, scored after 14 days, read-out: % Visual Growth Reduction ECHCG)?
Answer: 0%

Question: And the “GR80 Value ECHCG” value [3]?
Answer: >140 g ai/ha

Question: And the pest or weed control at 35 g/ha ([4]; Amaranthus retroflexus, 336 h, 35 g ai/ha, foliar post-emergent, scored after 14 days, read-out: % Visual Growth Reduction AMARE)?
Answer: 85%

Question: And the pest or weed control at 70 g/ha ([4]; Amaranthus retroflexus, 336 h, 70 g ai/ha, foliar post-emergent, scored after 14 days, read-out: % Visual Growth Reduction AMARE)?
Answer: 98%

Question: And the pest or weed control at 140 g/ha ([4]; Amaranthus retroflexus, 336 h, 140 g ai/ha, foliar post-emergent, scored after 14 days, read-out: % Visual Growth Reduction AMARE)?
Answer: 100%

Question: And the “GR80 Value AMARE” value [4]?
Answer: 18.1 g ai/ha

Question: What about the pest or weed control at 35 g/ha ([5]; Helianthus annuus, 336 h, 35 g ai/ha, foliar post-emergent, scored after 14 days, read-out: % Visual Growth Reduction HELAN) of the same compound?
Answer: 80%

Question: What about the pest or weed control at 70 g/ha ([5]; Helianthus annuus, 336 h, 70 g ai/ha, foliar post-emergent, scored after 14 days, read-out: % Visual Growth Reduction HELAN) of the same compound?
Answer: 85%

Question: What about the pest or weed control at 140 g/ha ([5]; Helianthus annuus, 336 h, 140 g ai/ha, foliar post-emergent, scored after 14 days, read-out: % Visual Growth Reduction HELAN) of the same compound?
Answer: 100%

Question: What about the “GR80 Value HELAN” value [5] of the same compound?
Answer: 124 g ai/ha

Question: And the pest or weed control at 35 g/ha ([6]; Viola tricolor, 336 h, 35 g ai/ha, foliar post-emergent, scored after 14 days, read-out: % Visual Growth Reduction VIOTR)?
Answer: 0%

Question: What about the pest or weed control at 70 g/ha ([6]; Viola tricolor, 336 h, 70 g ai/ha, foliar post-emergent, scored after 14 days, read-out: % Visual Growth Reduction VIOTR) of the same compound?
Answer: 0%

Question: And the pest or weed control at 140 g/ha ([6]; Viola tricolor, 336 h, 140 g ai/ha, foliar post-emergent, scored after 14 days, read-out: % Visual Growth Reduction VIOTR)?
Answer: 0%

Question: What about the “GR80 Value VIOTR” value [6] of the same compound?
Answer: >140 g ai/ha

Question: What about the pest or weed control at 35 g/ha ([7]; Euphorbia heterophylla, 336 h, 35 g ai/ha, foliar post-emergent, scored after 14 days, read-out: % Visual Growth Reduction EPHHL) of the same compound?
Answer: 0%

Question: What about the pest or weed control at 70 g/ha ([7]; Euphorbia heterophylla, 336 h, 70 g ai/ha, foliar post-emergent, scored after 14 days, read-out: % Visual Growth Reduction EPHHL) of the same compound?
Answer: 20%

Question: What about the pest or weed control at 140 g/ha ([7]; Euphorbia heterophylla, 336 h, 140 g ai/ha, foliar post-emergent, scored after 14 days, read-out: % Visual Growth Reduction EPHHL) of the same compound?
Answer: 30%

Question: And the “GR80 Value EPHHL” value [7]?
Answer: >140 g ai/ha

Question: What about the pest or weed control at 35 g/ha ([8]; Chenopodium album, 336 h, 35 g ai/ha, foliar post-emergent, scored after 14 days, read-out: % Visual Growth Reduction CHEAL) of the same compound?
Answer: 80%

Question: What about the pest or weed control at 70 g/ha ([8]; Chenopodium album, 336 h, 70 g ai/ha, foliar post-emergent, scored after 14 days, read-out: % Visual Growth Reduction CHEAL) of the same compound?
Answer: 85%

Question: And the pest or weed control at 140 g/ha ([8]; Chenopodium album, 336 h, 140 g ai/ha, foliar post-emergent, scored after 14 days, read-out: % Visual Growth Reduction CHEAL)?
Answer: 85%

Question: And the “GR80 Value CHEAL” value [8]?
Answer: 23.7 g ai/ha

Question: Which plant injury at 37 g/ha ([1]; 37 g ai/ha) does the source give for `COC(=O)c1nc(CF)cc(N)c1Cl` [Compound F26, methyl 4-amino-3-chloro-6-(fluoromethyl)picolinate] here?
Answer: 0%

Question: What about the plant injury at 74 g/ha ([1]; 74 g ai/ha) of the same compound?
Answer: 0%

Question: What about the plant injury at 148 g/ha ([1]; 148 g ai/ha) of the same compound?
Answer: 0%

Question: And the plant injury at 37 g/ha ([2]; 37 g ai/ha)?
Answer: 0%

Question: And the plant injury at 74 g/ha ([2]; 74 g ai/ha)?
Answer: 0%

Question: And the plant injury at 148 g/ha ([2]; 148 g ai/ha)?
Answer: 10%

Question: And the pest or weed control at 37 g/ha ([3]; Echinochloa crus-galli, 336 h, 37 g ai/ha, foliar post-emergent, scored after 14 days, read-out: % Visual Growth Reduction ECHCG)?
Answer: 0%

Question: What about the pest or weed control at 74 g/ha ([3]; Echinochloa crus-galli, 336 h, 74 g ai/ha, foliar post-emergent, scored after 14 days, read-out: % Visual Growth Reduction ECHCG) of the same compound?
Answer: 0%

Question: What about the pest or weed control at 148 g/ha ([3]; Echinochloa crus-galli, 336 h, 148 g ai/ha, foliar post-emergent, scored after 14 days, read-out: % Visual Growth Reduction ECHCG) of the same compound?
Answer: 20%

Question: And the “GR80 Value ECHCG” value [3]?
Answer: >148 g ai/ha

Question: What about the pest or weed control at 37 g/ha ([4]; Amaranthus retroflexus, 336 h, 37 g ai/ha, foliar post-emergent, scored after 14 days, read-out: % Visual Growth Reduction AMARE) of the same compound?
Answer: 0%

Question: What about the pest or weed control at 74 g/ha ([4]; Amaranthus retroflexus, 336 h, 74 g ai/ha, foliar post-emergent, scored after 14 days, read-out: % Visual Growth Reduction AMARE) of the same compound?
Answer: 80%

Question: What about the pest or weed control at 148 g/ha ([4]; Amaranthus retroflexus, 336 h, 148 g ai/ha, foliar post-emergent, scored after 14 days, read-out: % Visual Growth Reduction AMARE) of the same compound?
Answer: 90%

Question: And the “GR80 Value AMARE” value [4]?
Answer: 104 g ai/ha

Question: And the pest or weed control at 37 g/ha ([5]; Helianthus annuus, 336 h, 37 g ai/ha, foliar post-emergent, scored after 14 days, read-out: % Visual Growth Reduction HELAN)?
Answer: 70%

Question: And the pest or weed control at 74 g/ha ([5]; Helianthus annuus, 336 h, 74 g ai/ha, foliar post-emergent, scored after 14 days, read-out: % Visual Growth Reduction HELAN)?
Answer: 90%

Question: What about the pest or weed control at 148 g/ha ([5]; Helianthus annuus, 336 h, 148 g ai/ha, foliar post-emergent, scored after 14 days, read-out: % Visual Growth Reduction HELAN) of the same compound?
Answer: 90%

Question: What about the “GR80 Value HELAN” value [5] of the same compound?
Answer: 48.3 g ai/ha

Question: What about the pest or weed control at 37 g/ha ([6]; Viola tricolor, 336 h, 37 g ai/ha, foliar post-emergent, scored after 14 days, read-out: % Visual Growth Reduction VIOTR) of the same compound?
Answer: 10%

Question: And the pest or weed control at 74 g/ha ([6]; Viola tricolor, 336 h, 74 g ai/ha, foliar post-emergent, scored after 14 days, read-out: % Visual Growth Reduction VIOTR)?
Answer: 15%

Question: What about the pest or weed control at 148 g/ha ([6]; Viola tricolor, 336 h, 148 g ai/ha, foliar post-emergent, scored after 14 days, read-out: % Visual Growth Reduction VIOTR) of the same compound?
Answer: 70%

Question: What about the “GR80 Value VIOTR” value [6] of the same compound?
Answer: 223 g ai/ha

Question: And the pest or weed control at 37 g/ha ([7]; Euphorbia heterophylla, 336 h, 37 g ai/ha, foliar post-emergent, scored after 14 days, read-out: % Visual Growth Reduction EPHHL)?
Answer: 90%

Question: And the pest or weed control at 74 g/ha ([7]; Euphorbia heterophylla, 336 h, 74 g ai/ha, foliar post-emergent, scored after 14 days, read-out: % Visual Growth Reduction EPHHL)?
Answer: 100%

Question: What about the pest or weed control at 148 g/ha ([7]; Euphorbia heterophylla, 336 h, 148 g ai/ha, foliar post-emergent, scored after 14 days, read-out: % Visual Growth Reduction EPHHL) of the same compound?
Answer: 100%

Question: What about the “GR80 Value EPHHL” value [7] of the same compound?
Answer: 38.8 g ai/ha

Question: And the pest or weed control at 37 g/ha ([8]; Chenopodium album, 336 h, 37 g ai/ha, foliar post-emergent, scored after 14 days, read-out: % Visual Growth Reduction CHEAL)?
Answer: 90%

Question: And the pest or weed control at 74 g/ha ([8]; Chenopodium album, 336 h, 74 g ai/ha, foliar post-emergent, scored after 14 days, read-out: % Visual Growth Reduction CHEAL)?
Answer: 90%

Question: What about the pest or weed control at 148 g/ha ([8]; Chenopodium album, 336 h, 148 g ai/ha, foliar post-emergent, scored after 14 days, read-out: % Visual Growth Reduction CHEAL) of the same compound?
Answer: 90%

Question: What about the “GR80 Value CHEAL” value [8] of the same compound?
Answer: 29 g ai/ha
